These results are taken from ChEMBL document CHEMBL1159210, “The arenarans, sesquiterpene ethers from the marine sponge Dysidea arenaria” (J Nat Prod, 1995).

Values after ≈ are worked out from the molar mass of the structure shown. Active and inactive are the calls of the source. No cut-off for these calls is given here.

As usually defined, the IC50 is the concentration that inhibits the measured activity by half. A lower IC50 goes with greater potency in that assay.

What all share (format): functional, cell-based
One assay deals with A549. Briefly: Cytotoxicity against human A549 cells.
A further assay deals with HT-29. Briefly: Cytotoxicity against human HT-29 cells.
Another assay relates to HCT-29. Briefly: Cytotoxicity against human HCT29 cells.
For another assay, the system named is P388. The assay can be described thus: Cytotoxicity against mouse P388 cells.

On to `CC1(C)CCC[C@]2(C)OC[C@H]3O[C@@]3(C)CC[C@@H]12`, for which the result with A549, in the assay with HT-29, with HCT-29 and in the assay with P388 was inactive.
With `C/C1=C/CO[C@@]2(C)CCCC(C)(C)[C@@H]2CC1` [ARENARAN A], the IC50 with A549 stood at 9.51 mg/L (≈ 42.8 µM); in the assay with HT-29, 9.11 mg/L (≈ 41 µM); with HCT-29, 5.28 mg/L (≈ 23.7 µM); with P388, 3.17 mg/L (≈ 14.3 µM).
